# Source: patent US20250179047A1, “5-[7-(3,4-DIHYDRO-1H-ISOQUINOLINE-2-CARBONYL)-1,2,3,4 TETRAHYDROISOQUINOLIN-6-YL]-1H-PYRROLE-3-CARBOXAMIDE DERIVATIVES, PHARMACEUTICAL COMPOSITIONS CONTAINING THEM AND THEIR USES AS PRO-APOPTOTIC AGENTS” (LES LABORATOIRES SERVIER, priority 2022, published 2025)
# Biological target: CYP3A4 (Homo sapiens (Human), UniProt P08684)
# Experiment: CYP3A4 inhibition determination in hepatic human microsomes
# Assay type: in vitro ADME
# Details: LC/MS-MS of specific metabolite
# Protocol: The inhibitory potential was determined on CYP3 Å4 enzyme using hepatic human microsomes. A range of concentrations (adapted based on the solubility) of the tested compound were incubated in presence of a substrate having a specific metabolite of CYP3 Å4 enzyme.
# Then, the formation of the metabolite was quantified using LC/MS-MS analysis and a curve corresponding to the concentration of the metabolite in function of the concentration of the test compound allowed to the calculation of the IC50 value.
# Sequence of CYP3A4 (P08684 whole entry): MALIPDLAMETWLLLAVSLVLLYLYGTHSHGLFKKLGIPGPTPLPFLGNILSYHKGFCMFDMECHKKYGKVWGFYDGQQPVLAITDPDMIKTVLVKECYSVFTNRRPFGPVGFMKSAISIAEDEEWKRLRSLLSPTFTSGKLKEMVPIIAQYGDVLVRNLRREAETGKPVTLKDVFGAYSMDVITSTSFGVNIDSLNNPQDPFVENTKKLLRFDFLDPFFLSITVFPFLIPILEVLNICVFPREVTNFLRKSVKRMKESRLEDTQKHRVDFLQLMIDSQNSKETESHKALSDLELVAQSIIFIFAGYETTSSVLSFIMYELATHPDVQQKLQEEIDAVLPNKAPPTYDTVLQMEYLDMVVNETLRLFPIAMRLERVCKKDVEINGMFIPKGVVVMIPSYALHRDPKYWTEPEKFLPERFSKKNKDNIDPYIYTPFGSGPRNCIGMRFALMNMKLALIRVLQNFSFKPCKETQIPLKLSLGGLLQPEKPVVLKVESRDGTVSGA
row,IC50 [µM],Structure (SMILES)
1,6.2,"Cc1c(N(C(=O)c2cc(-c3cc4c(cc3C(=O)N3Cc5ccccc5C[C@H]3C)CN(C(=O)Cc3ccc(OCCN5CCOCC5)cc3)CC4)n(C)c2C)c2ccc(O)cc2)cc(C#N)n1C [Example 21, N-(5-cyano-1,2-dimethyl-1H-pyrrol-3-yl)-N-(4-hydroxyphenyl)-1,2-dimethyl-5-{7-[(3R)-3-methyl-1,2,3,4-tetrahydroisoquinoline-2-carbonyl]-2-(2-{4-[2-(morpholin-4-yl)ethoxy]phenyl}acetyl)-1,2,3,4-tetrahydroisoquinolin-6-yl}-1H-pyrrole-3-carboxamide]"
2,> 5,"Cc1c(C(=O)N(c2ccc(O)cc2)c2cc(C#N)n(C(F)F)c2C)cc(-c2cc3c(cc2C(=O)N2Cc4ccccc4C[C@H]2CN2CCCCC2)CN(C(=O)Cc2ccc(OCCN4CCOCC4)cc2F)CC3)n1C [Example 78, N-[5-cyano-1-(difluoromethyl)-2-methylpyrrol-3-yl]-5-[2-(2-{2-fluoro-4-[2-(morpholin-4-yl)ethoxy]phenyl}acetyl)-7-{[(3S)-3-(piperidin-1-ylmethyl)-3,4-dihydro-1H-isoquinolin-2-yl]carbonyl}-3,4-dihydro-1H-isoquinolin-6-yl]-N-(4-hydroxyphenyl)-1,2-dimethylpyrrole-3-carboxamide]"
3,> 5,Cc1c(C(=O)N(c2ccc(O)cc2)c2cc(C#N)n(C(F)F)c2C)cc(-c2cc3c(cc2C(=O)N2Cc4ccccc4C[C@H]2CN2CCCCC2)CN(C(=O)Cc2ccc(OCCN4CCOCC4)cc2)CC3)n1C [Example 77]
